In patent US6737383B1, “Herbicidal oxadiazolidines” (priority 1999, dated 2004):

How the values were obtained:
wild oat = assay: Test B pre/postemergence wild oat; format: in vivo, Avena fatua
Procedure, shortened: (§1)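 Herbicidal effect was estimated by eye on a ten-point control scale after plants spent twelve to sixteen days in a greenhouse following soil or foliar treatment. Foliar sprays targeted plants at one to four leaves; all doses were formulated in a non-phytotoxic solvent with surfactant.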

morningglory = assay: Test B pre/postemergence morningglory; format: in vivo, Ipomoea hederacea
Procedure, shortened: as §1

velvetleaf = assay: Test B pre/postemergence velvetleaf; format: in vivo, Abutilon theophrasti
Procedure, shortened: as §1

bedstraw = assay: Test B pre/postemergence bedstraw; format: in vivo, Galium aparine
Procedure, shortened: as §1

[1] = Preemergence, Rate 62 g/ha, scale of 0 to 10 where 0 is no effect and 10 is complete control
[2] = Preemergence, Rate 250 g/ha, scale of 0 to 10 where 0 is no effect and 10 is complete control
[3] = Preemergence, Rate 500 g/ha, scale of 0 to 10 where 0 is no effect and 10 is complete control
[4] = Rate 62 g/ha, Postemergence, scale of 0 to 10 where 0 is no effect and 10 is complete control
[5] = Rate 125 g/ha, Postemergence, scale 0 to 10
[6] = Rate 125 g/ha, Preemergence, scale of 0 to 10 where 0 is no effect and 10 is complete control
[7] = Rate 500 g/ha, Postemergence, scale 0 to 10, 0 no effect, 10 complete control
[8] = Rate 125 g/ha, Postemergence, scale of 0 to 10 where 0 is no effect and 10 is complete control
[9] = Rate 250 g/ha, Postemergence, scale of 0 to 10 where 0 is no effect and 10 is complete control
[10] = Rate 62 g/ha, Postemergence, scale 0 to 10 (0 no effect, 10 complete control)

Compound	Wild oats plant response rating (wild oat; [1])	Wild oats plant response rating (wild oat; [2])	Plant response rating, Wild oats (wild oat; [3])	Morningglory plant response rating (morningglory; [1])	Morningglory plant response rating (morningglory; [2])	Plant response rating, Morningglory (morningglory; [3])	Morningglory plant response rating (morningglory; [6])	Velvetleaf plant response rating (velvetleaf; [1])	Velvetleaf plant response rating (velvetleaf; [2])	Plant response rating, Velvetleaf (velvetleaf; [3])	Bedstraw plant response rating (bedstraw; [1])	Bedstraw plant response rating (bedstraw; [2])	Wild oats plant response rating (wild oat; [8])	Plant response rating, Wild oats (wild oat; [9])	Morningglory plant response rating (morningglory; [8])	Plant response rating, Morningglory (morningglory; [9])	Velvetleaf plant response rating (velvetleaf; [8])	Plant response rating, Velvetleaf (velvetleaf; [9])	Bedstraw plant response rating (bedstraw; [8])	Plant response rating, Bedstraw (bedstraw; [9])	further results
CC(C)N(C(=O)n1oc(=O)n(-c2cccnc2)c1=O)c1ccccc1 [Compound 235]	0	0	0	0	0	0	0	0	0	0	0	0	–	–	–	–	–	–	–	–	Wild oats plant response rating (wild oat; [4]): 0; Wild oats plant response rating (wild oat; [5]): 0; Wild oats plant response rating (wild oat; [6]): 0; Plant response rating (0 to 10; 0 is no effect, 10 is complete control), Wild oats (wild oat; Rate 250 g/ha, Postemergence): 0; Wild oats plant response rating (wild oat; [7]): 0; Morningglory plant response rating (morningglory; [4]): 2; Morningglory plant response rating (morningglory; [5]): 2; Plant response rating (0 to 10; 0 is no effect, 10 is complete control), Morningglory (morningglory; Rate 250 g/ha, Postemergence): 6; Morningglory plant response rating (morningglory; [7]): 7; Velvetleaf plant response rating (velvetleaf; [4]): 0; Velvetleaf plant response rating (velvetleaf; [5]): 0; Velvetleaf plant response rating (velvetleaf; [6]): 0; Plant response rating (0 to 10; 0 is no effect, 10 is complete control), Velvetleaf (velvetleaf; Rate 250 g/ha, Postemergence): 0; Velvetleaf plant response rating (velvetleaf; [7]): 0; Plant response rating, Bedstraw (bedstraw; [3]): 0; Bedstraw plant response rating (bedstraw; [4]): 0; Bedstraw plant response rating (bedstraw; [5]): 0; Bedstraw plant response rating (bedstraw; [6]): 0; Plant response rating (0 to 10; 0 is no effect, 10 is complete control), Bedstraw (bedstraw; Rate 250 g/ha, Postemergence): 0; Bedstraw plant response rating (bedstraw; [7]): 0
CC(C)N(C(=O)n1oc(=O)n(-c2ccsc2)c1=O)c1ccc(F)cc1 [Compound 272]	0	0	2	0	0	0	0	0	0	0	0	0	0	0	1	1	0	0	0	0	Wild oats plant response rating (wild oat; [7]): 0; Morningglory plant response rating (morningglory; [7]): 7; Velvetleaf plant response rating (velvetleaf; [6]): 0; Velvetleaf plant response rating (velvetleaf; [7]): 0; Plant response rating, Bedstraw (bedstraw; [3]): 3; Bedstraw plant response rating (bedstraw; [4]): 0; Bedstraw plant response rating (bedstraw; [6]): 0; Bedstraw plant response rating (bedstraw; [7]): 4
CC(C)N(C(=O)n1oc(=O)n(C[Si](C)(C)C)c1=O)c1ccc(F)cc1 [Compound 294]	0	3	8	0	0	0	0	0	3	4	0	0	0	0	6	9	0	0	6	8	Wild oats plant response rating (wild oat; [10]): 0; Morningglory plant response rating (morningglory; [10]): 6; Velvetleaf plant response rating (velvetleaf; [10]): 0; Velvetleaf plant response rating (velvetleaf; [6]): 0; Plant response rating, Bedstraw (bedstraw; [3]): 0; Bedstraw plant response rating (bedstraw; [10]): 3; Bedstraw plant response rating (bedstraw; [6]): 0; Bedstraw plant response rating (bedstraw; [7]): 9
CCN(C(=O)n1oc(=O)n(Cc2ccco2)c1=O)C1CCCCC1 [Compound 312]	0	0	–	0	0	–	–	0	0	–	0	0	0	0	0	0	0	0	0	0	Wild oats plant response rating (0 to 10 scale) (wild oat; Preemergence, Rate 125 g/ha): 0; Wild oats plant response rating (wild oat; [3]): 0; Wild oats plant response rating (wild oat; [10]): 0; Morningglory plant response rating (0 to 10 scale) (morningglory; Preemergence, Rate 125 g/ha): 0; Morningglory plant response rating (morningglory; [3]): 0; Morningglory plant response rating (morningglory; [10]): 0; Velvetleaf plant response rating (0 to 10 scale) (velvetleaf; Preemergence, Rate 125 g/ha): 0; Velvetleaf plant response rating (velvetleaf; [3]): 0; Velvetleaf plant response rating (velvetleaf; [10]): 0; Bedstraw plant response rating (0 to 10 scale) (bedstraw; Preemergence, Rate 125 g/ha): 0; Bedstraw plant response rating (bedstraw; [3]): 0; Bedstraw plant response rating (bedstraw; [10]): 0
CC(C)N(C(=O)n1oc(=O)n(Cc2nnsc2Cl)c1=O)c1ccccc1 [Compound 321]	0	2	–	0	0	–	–	0	0	–	0	–	0	0	7	8	0	0	4	8	Wild oats plant response rating (0 to 10 scale) (wild oat; Preemergence, Rate 125 g/ha): 0; Wild oats plant response rating (wild oat; [3]): 5; Wild oats plant response rating (wild oat; [10]): 0; Morningglory plant response rating (0 to 10 scale) (morningglory; Preemergence, Rate 125 g/ha): 0; Morningglory plant response rating (morningglory; [3]): 0; Morningglory plant response rating (morningglory; [10]): 2; Velvetleaf plant response rating (0 to 10 scale) (velvetleaf; Preemergence, Rate 125 g/ha): 0; Velvetleaf plant response rating (velvetleaf; [3]): 0; Velvetleaf plant response rating (velvetleaf; [10]): 0; Bedstraw plant response rating (bedstraw; [3]): 3; Bedstraw plant response rating (bedstraw; [10]): 0
